In US6949648B2, “Condensed pyrazole derivatives, process for producing the same and use thereof” (Takeda Pharmaceutical Company Limited, priority 2000, dated 2005):

Work on `Cc1nn(-c2ccccn2)c2[nH]c3c(c(=O)c12)CCCCC3` [Example 2-195, 3-Methyl-1-(2-pyridinyl)-5,6,7,8,9,10-hexahydrocyclohepta[b]pyrazolo[4,3-e]pyridin-4(1H)-one] yielded a melting point of 184 to 185 °C.
`Cc1cccnc1-n1nc(C)c2c(=O)c3ccccc3[nH]c21` [Example 2-120, 3-Methyl-1-(3-methyl-2-pyridinyl)-1,9-dihydro-4H-pyrazolo[3,4-b]quinolin-4-one] gave a melting point of 184 to 185 °C.
`CC(C)c1nn(-c2ccccn2)c2[nH]c3ccccc3c(=O)c12` [Example 2-173, 3-Isopropyl-1-(2-pyridinyl)-1,9-dihydro-4H-pyrazolo[3,4-b]quinolin-4-one] gave a melting point of 143 to 144 °C.
Work on `Cc1nn(-c2ccccn2)c2[nH]c3ccc(N(C)C)cc3c(=O)c12` [Example 2-56, 6-Dimethylamino-3-methyl-1-(2-pyridinyl)-1,9-dihydro-4H-pyrazolo[3,4-b]quinolin-4-one] yielded a melting point of 171 to 173 °C.
`O=c1c2ccccc2[nH]c2c1c(-c1ccccc1)nn2-c1ccccn1` [Example 2-182, 3-Phenyl-1-(2-pyridinyl)-1,9-dihydro-4H-pyrazolo[3,4-b]quinolin-4-one] gave a melting point of 237 to 240 °C.
`Cc1nn(-c2cccnc2)c2nc3cc(F)c(F)cc3c(Cl)c12` [Example 2-202, 4-Chloro-6,7-difluoro-3-methyl-1-(3-pyridinyl)-1H-pyrazolo[3,4-b]quinoline] gave a melting point of 192 to 194 °C.
For `Cc1nn(-c2ccccn2)c2[nH]c3ccc([N+](=O)[O-])cc3c(=O)c12` [Example 2-54, 3-Methyl-6-nitro-1-(2-pyridinyl)-1,9-dihydro-4H-pyrazolo[3,4-b]quinolin-4-one], the melting point was greater than 300 °C.
For `CCCSc1c2ccccc2nc2c1c(C)nn2-c1ccccn1` [Example 2-27, 3-Methyl-4-(propylsulfanyl)-1-(2-pyridinyl)-1H-pyrazolo[3,4-b]quinoline], the melting point was 91 to 93 °C.
`CC(C)Cc1nn(-c2ccccn2)c2[nH]c3ccccc3c(=O)c12` [Example 2-174, 3-Isobutyl-1-(2-pyridinyl)-1,9-dihydro-4H-pyrazolo[3,4-b]quinolin-4-one] gave a melting point of 167 to 169 °C.
For `Cc1nn(-c2ccccn2)c2nc(O)c3c(c12)CCC3` [Example 1-28, 1-Methyl-3-(2-pyridinyl)-3,6,7,8-tetrahydrocyclopenta[d]pyrazolo[3,4-b]pyridin-5-ol], the melting point was 255 to 256 °C.
In the case of `Cc1nn(-c2ccccn2)c2[nH]c3ccc(S(C)(=O)=O)cc3c(=O)c12` [Example 2-52, 3-Methyl-6-(methylsulfonyl)-1-(2-pyridinyl)-1,9-dihydro-4H-pyrazolo[3,4-b]quinolin-4-one], the melting point is reported as greater than 300 °C.
Compound `Cc1nn(-c2ccccn2)c2ncc(C(=O)c3ccccc3)c(O)c12` [Example 1-4, [4-Hydroxy-3-methyl-1-(2-pyridinyl)-1H-pyrazolo[3,4-b]pyridin-5-yl]phenylmethanone] has a melting point of 224 to 226 °C.
For `Cc1nn(-c2ccccn2)c2nc3ccccc3c(Cl)c12` [Example 1-34, 4-Chloro-3-methyl-1-(2-pyridinyl)-1H-pyrazolo[3,4-b]quinoline], the melting point was 157 to 159 °C.
With `Cc1nn(-c2ccccn2)c2nc3ccccc3c(OCC(C)C)c12` [Example 2-20, 4-Isobutoxy-3-methyl-1-(2-pyridinyl)-1H-pyrazolo[3,4-b]quinoline] the melting point was 117 to 120 °C.
With `Cc1nn(-c2ccccn2)c2nc3ccccc3c(SC(C)C)c12` [Example 2-25, 4-(Isopropylsulfanyl)-3-methyl-1-(2-pyridinyl)-1H-pyrazolo[3,4-b]quinoline] the melting point was 113 to 114 °C.
In the case of `Cc1cccnc1-n1nc(C)c2c(Cl)c3c(C)cccc3nc21` [Example 2-123, 4-Chloro-3,5-dimethyl-1-(3-methyl-2-pyridinyl)-1H-pyrazolo[3,4-b]quinoline], the melting point is reported as 176 to 178 °C.
Compound `Cc1cccc2c(=O)c3c(C)nn(-c4ccccn4)c3[nH]c12` [Example 2-38, 3,8-Dimethyl-1-(2-pyridinyl)-1,9-dihydro-4H-pyrazolo[3,4-b]quinolin-4-one] has a melting point of 241 to 243 °C.
`Cc1cccnc1-n1nc(C)c2c(N)c3c(C)cccc3nc21` [Example 2-124, 3,5-Dimethyl-1-(3-methyl-2-pyridinyl)-1H-pyrazolo[3,4-b]quinolin-4-ylamine] gave a melting point of 271 to 274 °C.
In the case of `Cc1ccc2nc3c(c(C)nn3-c3ccccn3)c(N)c2c1.Cl`, the melting point is reported as 287 to 290 °C.
Work on `Cc1nn(-c2ccccn2)c2[nH]c3ccc(C(=O)O)cc3c(=O)c12` [Example 2-65, 3-Methyl-4-oxo-1-(2-pyridinyl)-4,9-dihydro-1H-pyrazolo[3,4-b]quinoline-6-carboxylic acid] yielded a melting point greater than 300 °C.
`O=C(O)c1nn(-c2ccccn2)c2[nH]c3ccccc3c(=O)c12` [Example 2-181, 4-Oxo-1-(2-pyridinyl)-4,9-dihydro-1H-pyrazolo[3,4-b]quinoline-3-carboxylic acid] gave a melting point of 306 to 309 °C.
With `CCCn1c2cc(F)c(F)cc2c(=O)c2c(C)nn(-c3ccccn3)c21` [Example 2-93, 6,7-Difluoro-3-methyl-9-propyl-1-(2-pyridinyl)-1,9-dihydro-4H-pyrazolo[3,4-b]quinolin-4-one] the melting point was 198 to 200 °C.
`O=c1c2ccccc2[nH]c2c1c(C(F)(F)F)nn2-c1ccccn1` [Example 2-167, 1-(2-Pyridinyl)-3-trifluoromethyl-1,9-dihydro-4H-pyrazolo[3,4-b]quinolin-4-one] gave a melting point of 231 to 233 °C.
`COc1c2ccccc2nc2c1c(C)nn2Cc1ccccn1` [Example 2-190, 4-Methoxy-3-methyl-1-(2-pyridinylmethyl)-1H-pyrazolo[3,4-b]quinoline] showed a melting point of 111 to 113 °C.
In the case of `Cc1nn(Cc2cccnc2)c2[nH]c3ccccc3c(=O)c12` [Example 2-191, 3-Methyl-1-(3-pyridinylmethyl)-1,9-dihydro-4H-pyrazolo[3,4-b]quinolin-4-one], the melting point is reported as 285 to 288 °C.
In the case of `Cc1nn(-c2ccccn2)c2nc3ccccc3c(C(N)=O)c12` [Example 2-108, 3-Methyl-1-(2-pyridinyl)-1H-pyrazolo[3,4-b]quinoline-4-carboxamide], the melting point is reported as greater than 300 °C.
`Cc1ccc2nc3c(c(C)nn3-c3ccccn3)c(Cl)c2c1` [Example 2-32, 4-Chloro-3,6-dimethyl-1-(2-pyridinyl)-1H-pyrazolo[3,4-b]quinoline] showed a melting point of 158 to 160 °C.
Work on `Cc1nn(-c2ccccn2)c2[nH]c3ccc(Cl)cc3c(=O)c12` [Example 2-72, 6-Chloro-3-methyl-1-(2-pyridinyl)-1,9-dihydro-4H-pyrazolo[3,4-b]quinolin-4-one] yielded a melting point of 254 to 255 °C.
With `Cc1nn(-c2ccncc2)c2nc3ccccc3c(N)c12.Cl.Cl` the melting point was 259 to 266 °C.
With `CCCCc1c2ccccc2nc2c1c(C)nn2-c1ccccn1` [Example 2-104, 4-Butyl-3-methyl-1-(2-pyridinyl)-1H-pyrazolo[3,4-b]quinoline] the melting point was 102 to 103 °C.
`O=c1c2cnn(-c3ccccn3)c2[nH]c2cccc(F)c12` [Example 2-163, 5-Fluoro-1-(2-pyridinyl)-1,9-dihydro-4H-pyrazolo[3,4-b]quinolin-4-one] gave a melting point of 278 to 281 °C.
In the case of `Cc1nn(-c2ccccn2)c2nc3ccccc3c(C#N)c12` [Example 2-107, 3-Methyl-1-(2-pyridinyl)-1H-pyrazolo[3,4-b]quinoline-4-carbonitrile], the melting point is reported as 210 to 211 °C.
In the case of `Cc1nn(-c2ccc(Cl)cn2)c2[nH]c3ccccc3c(=O)c12` [Example 2-114, 1-(5-Chloro-2-pyridinyl)-3-methyl-1,9-dihydro-4H-pyrazolo[3,4-b]quinolin-4-one], the melting point is reported as 262 to 263 °C.
For `Cc1nn(-c2ccccn2)c2[nH]c3cc(F)c(F)cc3c(=O)c12.O` (hydrate or solvate) [Example 2-92, 6,7-Difluoro-3-methyl-1-(2-pyridinyl)-1,9-dihydro-4H-pyrazolo[3,4-b]quinolin-4-one monohydrate], the melting point was 273 to 275 °C.
In the case of `Cc1nn(-c2ccccn2)c2[nH]c3ccccc3c(=O)c12` [Example 1-39, 3-Methyl-1-(2-pyridinyl)-1,9-dihydro-4H-pyrazolo[3,4-b]quinolin-4-one], the melting point is reported as 199 to 200 °C.
`COc1ccc2[nH]c3c(c(C)nn3-c3ccccn3)c(=O)c2c1` [Example 2-43, 6-Methoxy-3-methyl-1-(2-pyridinyl)-1,9-dihydro-4H-pyrazolo[3,4-b]quinolin-4-one] gave a melting point of 227 to 229 °C.
`COC(=O)c1ccc2nc3c(c(C)nn3-c3ccccn3)c(Cl)c2c1` [Example 2-63, Methyl 4-chloro-3-methyl-1-(2-pyridinyl)-1H-pyrazolo[3,4-b]quinoline-6-carboxylate] showed a melting point of 199 to 200 °C.
Work on `Cc1cccc2c(=O)c3c(C)nn(-c4ccc5ccccc5n4)c3[nH]c12` [Example 2-154, 3,8-Dimethyl-1-(2-quinolinyl)-1,9-dihydro-4H-pyrazolo[3,4-b]quinolin-4-one] yielded a melting point of 255 to 257 °C.
Compound `Cc1cc(O)c2c(C)nn(-c3ccccn3)c2n1` [Example 1-18, 3,6-Dimethyl-1-(2-pyridinyl)-1H-pyrazolo[3,4-b]pyridin-4-ol] has a melting point of 175 to 176 °C.
`Cc1nn(-c2ccccn2)c2[nH]c3c(c(=O)c12)CCCC3` [Example 2-194, 3-Methyl-1-(2-pyridinyl)-1,5,6,7,8,9-hexahydro-4H-pyrazolo[3,4-b]quinolin-4-one] showed a melting point of 172 to 173 °C.
Work on `Cc1nn(-c2ccccn2)c2nc(Cc3ccccc3)cc(O)c12` [Example 1-21, 6-Benzyl-3-methyl-1-(2-pyridinyl)-1H-pyrazolo[3,4-b]pyridin-4-ol] yielded a melting point of 168 to 169 °C.
Work on `Cc1nn(-c2ccncc2)c2nc3cc(F)c(F)cc3c(Cl)c12` [Example 2-204, 4-Chloro-6,7-difluoro-3-methyl-1-(4-pyridinyl)-1H-pyrazolo[3,4-b]quinoline] yielded a melting point of 226 to 228 °C.
For `Oc1ccnc2c1cnn2-c1ccccn1` [Example 1-7, 1-(2-Pyridinyl)-1H-pyrazolo[3,4-b]pyridin-4-ol], the melting point was 192 to 194 °C.
Compound `CCCOc1c2cc(F)c(F)cc2nc2c1c(C)nn2-c1ccccn1` [Example 2-94, 6,7-Difluoro-3-methyl-4-propoxy-1-(2-pyridinyl)-1H-pyrazolo[3,4-b]quinoline] has a melting point of 162 to 163 °C.
